{"source": "patent US20060084790A1", "about": "“P-Rex1, a ptdins (3,4,5) p3-g-beta-gamma-regulated guanine-nucleotide exchange factor for rac” (The Babraham Institute, priority 2002, published 2006)", "key": {"recombinant human P-Rex1": {"biological_target": "T1, recombinant human P-Rex1 (Homo sapiens, UniProt Q8TCU6, A1118T/K1340E)", "T1 construct": "made in house; host or cells: Sf9 cells (baculovirus, pAc0G1 vector)", "T1 sequence (Q8TCU6 whole entry A1118T/K1340E)": "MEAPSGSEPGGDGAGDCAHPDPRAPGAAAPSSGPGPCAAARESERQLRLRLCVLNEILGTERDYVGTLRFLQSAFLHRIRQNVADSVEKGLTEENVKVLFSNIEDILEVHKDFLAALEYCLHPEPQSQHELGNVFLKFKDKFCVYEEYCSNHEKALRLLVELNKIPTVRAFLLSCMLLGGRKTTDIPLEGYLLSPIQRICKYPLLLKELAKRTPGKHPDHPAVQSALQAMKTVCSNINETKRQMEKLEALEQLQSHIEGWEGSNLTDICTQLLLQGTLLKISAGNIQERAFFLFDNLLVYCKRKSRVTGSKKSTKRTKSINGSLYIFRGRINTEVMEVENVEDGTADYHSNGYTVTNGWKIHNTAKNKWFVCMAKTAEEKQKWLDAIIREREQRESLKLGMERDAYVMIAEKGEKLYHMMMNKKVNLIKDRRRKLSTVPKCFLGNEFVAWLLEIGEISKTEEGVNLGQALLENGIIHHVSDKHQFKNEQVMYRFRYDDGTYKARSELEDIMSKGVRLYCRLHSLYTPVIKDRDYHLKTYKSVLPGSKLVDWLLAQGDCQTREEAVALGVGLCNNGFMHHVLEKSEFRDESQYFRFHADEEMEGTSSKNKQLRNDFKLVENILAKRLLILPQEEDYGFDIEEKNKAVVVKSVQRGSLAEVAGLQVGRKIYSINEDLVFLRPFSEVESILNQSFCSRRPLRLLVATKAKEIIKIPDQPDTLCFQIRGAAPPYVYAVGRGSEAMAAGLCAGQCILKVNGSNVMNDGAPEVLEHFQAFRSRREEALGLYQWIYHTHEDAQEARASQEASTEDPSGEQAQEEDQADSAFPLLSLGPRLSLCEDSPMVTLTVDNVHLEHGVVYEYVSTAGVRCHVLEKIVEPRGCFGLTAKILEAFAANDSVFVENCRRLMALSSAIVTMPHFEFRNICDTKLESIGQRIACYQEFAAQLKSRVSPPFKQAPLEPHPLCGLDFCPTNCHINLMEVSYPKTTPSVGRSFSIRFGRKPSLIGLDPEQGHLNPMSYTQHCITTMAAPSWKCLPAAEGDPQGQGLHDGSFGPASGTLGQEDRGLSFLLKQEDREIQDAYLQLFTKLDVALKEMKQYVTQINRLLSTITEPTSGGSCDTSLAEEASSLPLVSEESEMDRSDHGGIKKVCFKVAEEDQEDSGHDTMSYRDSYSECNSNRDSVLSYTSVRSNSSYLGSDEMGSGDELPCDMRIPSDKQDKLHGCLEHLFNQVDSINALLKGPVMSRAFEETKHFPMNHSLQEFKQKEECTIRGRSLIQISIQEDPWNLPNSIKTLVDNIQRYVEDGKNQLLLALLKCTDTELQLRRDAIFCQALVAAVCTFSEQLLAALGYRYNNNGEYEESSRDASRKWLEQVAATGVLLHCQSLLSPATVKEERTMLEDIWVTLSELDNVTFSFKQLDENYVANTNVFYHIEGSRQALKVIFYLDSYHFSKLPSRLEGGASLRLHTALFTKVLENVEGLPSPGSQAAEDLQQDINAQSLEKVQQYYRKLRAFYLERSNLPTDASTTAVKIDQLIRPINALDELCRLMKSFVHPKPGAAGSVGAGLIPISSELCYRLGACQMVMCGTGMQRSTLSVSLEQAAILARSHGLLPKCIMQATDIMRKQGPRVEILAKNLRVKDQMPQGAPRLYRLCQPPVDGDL", "assay": "Rac-GEF assay for recombinant P-Rex1 ([35S]-GTPγS loading of EE-Rac1, liposomes)", "type": "biochemical", "procedure": "Liposomes (phosphatidylcholine (PtdCho), phosphatidylserine (PtdS), phosphatidylinositol (PtdIns), final assay concentration 200 μM each) were sonicated in lipid buffer (20 mM Hepes/NaOH pH 7.5 (4° C.), 100 mM NaCl, 1 mM EGTA) with or without PtdIns(3,4,5)P3 (final assay concentration 10 μM) and incubated for 10 min on ice with 2 μl of purified, GDP-loaded, recombinant, lipid-modified EE-Rac1 in 5 mM MgCl2, 50 mg/ml BSA, 5 mM DTT, 20 mM Hepes/NaOH pH 7.5 (4° C.), 100 mM NaCl, 1 mM EGTA (final assay concentration 100 nM EE-Rac1, 0.0024% cholate). Then 4 μl of Rac-GEF activity (cytosol, column fractions, or recombinant P-Rex1) was added, followed by 2 μl of GTPγS (in lipid buffer, final assay concentration 5 μM, including 1 μCi [^35S]-GTPγS). After 10 min at 30° C., the reaction was stopped and EE-Rac1 pulled down using anti-EE antibodies coupled to protein G-sepharose, and [^35S]-GTPγS-loading of Rac was detected by scintillation β-counting. Recombinant P-Rex1 was diluted in ‘buffer A’ (20 mM Hepes/NaOH pH 7.5 (4° C.), 1% betaine, 0.01% Na azide, 0.5 mM EGTA, 200 mM KCl, 10% ethylene glycol) to a final assay concentration of 50 nM. In assays with Gβγ, 2 μl of Gβγ in ‘buffer A’ were added to the liposome/Rac mix before the 10 min on ice, and P-Rex1 was added as 5×."}, "[1]": {"assay": "Inositol polyphosphate 4-phosphatase (lipid phosphatase) assay", "type": "biochemical", "conditions": "P-Rex1 up to 1.45 μM"}, "[2]": {"assay": "Protein phosphatase assay with para-nitrophenolphosphate", "type": "biochemical", "conditions": "P-Rex1 up to 192 nM", "excerpt": "We also used para-nitrophenolphosphate as a broad-spectrum substrate in a protein phosphatase assay, using calf intestinal alkaline phosphatase and MEG-2 tyrosine phosphatase as controls."}, "PAE cells": {"test_system": "PAE cells", "assay": "Immunofluorescence microscopy of lamellipodia formation in myc-P-Rex1 transfected PAE cells", "type": "cell-based, pig", "procedure": "Pig aortic endothelial (PAE) cells were transiently transfected with pCMV3-myc-P-Rex1 or pCMV3-myc-DAPP1 by electroporation, grown on coverslips for 10 h and then serum starved for 8 h. They were then treated or not with 100 nM wortmannin for 10 min followed by stimulation with varying doses of PDGF for 5 min. Cells were fixed and prepared for immunofluorescence microscopy by staining of P-Rex1 and DAPP1 with anti-myc epitope-tag primary and FITC-goat anti-mouse secondary antibodies and filamentuous actin with TRITC-phalloidin as previously described (Welch et al. 1998)."}, "P-Rex1": {"test_system": "P-Rex1", "sequence (Q8TCU6 whole entry A1118T/K1340E)": "as above", "assay": "Surface plasmon resonance (Biacore) binding of P-Rex1 to phospholipid vesicles", "set-up": "species or system human", "conditions": "6 mol-% phosphoinositide; 100 nM P-Rex1; FIG. 5C", "procedure": "Assays were conducted as described (Ellson et al. 2001), using mixed phospholipid vesicles (PtdCho, PtdS, phosphatidylethanolamine (PtdE), 330 μM each final concentration) with or without added phosphoinositides (6 mol-% final concentration) to load the L1 vesicle capture chip (Biacore) prior to the injection of 100 nM purified recombinant Sf9-cell derived P-Rex1."}, "EE-Rac1": {"test_system": "EE-Rac1", "assay": "Rac-GEF assay with neutrophil cytosol and membrane fractions", "type": "biochemical", "conditions": "PtdIns(3,4,5)P3 alone (30 μM); FIG. 1C", "procedure": "This assay was essentially as for ROS production, except pure, lipid-modified EE-Rac1 (30-50 nM final concentration) was added to the cytosol, and GTP, GTPγS, NADPH, FAD and luminol omitted. Three min after mixing membrane and cytosol fractions, [α^32P]-GTP (20 μCi per sample) was added. Four min later, the reaction was stopped and EE-Rac1 pulled down using anti-EE antibody coupled to protein G sepharose. The total dpm on EE-Rac1 were quantified by scintillation counting (blanks without EE-Rac1 were subtracted)."}, "[3]": {"test_system": "neutrophil cytosol and low-density membranes (ROS formation)", "assay": "ROS formation assay with neutrophil cytosol and membrane fractions", "type": "biochemical, pig", "conditions": "added as liposomes, biological diastereoisomer; FIG. 1B", "procedure": "Neutrophil-enriched leukocytes were isolated from pigs' blood, sonicated in 0.25 M sucrose, 0.1 M KCl, 50 mM Hepes/NaOH pH 7.2 (4° C.), 1 mM DTT, 2 mM EGTA, 0.1 mM PMSF and 1× antiproteases (20 μg/ml of each antipain, aprotinin, pepstatin and leupetin) and centrifuged (100,000×g, 1 h, 4° C.) to yield cytosol and light membrane fractions (4.5 mg/ml protein, collected between 0.60 and 1.35 M sucrose and washed in sonication buffer). Light membranes (3 μl) were pre-mixed with Gβγ subunits, p101/p110γ-PI3K and/or N17-Rac (or boiled controls) in 6 μl containing 5 mM ATP, 8 mM MgCl2, 20 mM Hepes/NaOH pH 7.5 (4° C.), 2 mM EGTA, 10 mM β-glycerophosphate, 0.1 mM ortho-vanadate, 0.1 M KCl, 1 mM DTT, 0.01% (w/v) Na azide. After 25 min on ice, 20 μl was added containing 15 μl cytosol and 1 mM MgGTP, 20 μM FAD, 400 μM NADPH and 200 μM luminol. After 8 min at RT, single photon counts (SPC) per 0.1 min were quantitated in a scintillation counter at intervals of 3-5 min for up to 20 min (blanks without cytosol were subtracted). When lipids were added, they were preincubated with the membranes, and 10 μM GTPγS replaced MgGTP. Where wortmannin was added, it was preincubated with both cytosol and membrane fractions for 15 min on ice. Where EE-Rac1 was added, it was preloaded with different guanine nucleotides at a 5-fold excess over bound GDP."}}}
{"molecule": "C[C@H](CCC(=O)O)[C@H]1CC[C@H]2[C@@H]3[C@H](O)C[C@@H]4C[C@H](O)CC[C@]4(C)[C@H]3C[C@H](O)[C@]12C", "note": "[cholate]", "values": [{"measurement": "effect on P-Rex1 Rac-GEF activity in vitro", "setting": "recombinant human P-Rex1; FIG. 5D, 5E", "result": "strongly inhibits"}]}
{"molecule": "P-Rex1: novel 185 kD PtdIns(3,4,5)P3- and Gβγ-regulated guanine-nucleotide exchange factor for Rac (SEQ ID NO:1)", "values": [{"measurement": "lipid phosphatase activity", "setting": "[1]", "result": "no lipid or protein phosphatase activity"}, {"measurement": "protein phosphatase activity", "setting": "[2]", "result": "no lipid or protein phosphatase activity"}, {"measurement": "myc-positive cells with strongly exaggerated lamellipodia ('fried eggs', V12-Rac-like phenotype)", "setting": "PAE cells; serum-starved, unstimulated cells transiently expressing myc-P-Rex1", "result": "around 30%"}]}
{"molecule": "PDGF", "values": [{"measurement": "P-Rex1-positive cells exhibiting the V12-Rac-like phenotype", "setting": "PAE cells; PDGF-stimulation for 5 min", "result": 80, "unit": "%"}]}
{"molecule": "PtdIns3P", "values": [{"measurement": "P-Rex1 binding to phospholipid vesicles containing the phosphoinositide", "setting": "P-Rex1", "result": "only weakly"}]}
{"molecule": "PtdIns4P", "values": [{"measurement": "P-Rex1 binding to phospholipid vesicles containing the phosphoinositide", "setting": "P-Rex1", "result": "only weakly"}]}
{"molecule": "PtdIns5P", "values": [{"measurement": "P-Rex1 binding to phospholipid vesicles containing the phosphoinositide", "setting": "P-Rex1", "result": "only weakly"}]}
{"molecule": "PtdIns(3,4)P2", "values": [{"measurement": "activation of P-Rex1 Rac-GEF activity by phosphoinositide", "setting": "recombinant human P-Rex1; phosphoinositides compared at 10 μM, FIG. 5B", "result": "weak activation"}]}
{"molecule": "PtdIns(3,5)P2", "values": [{"measurement": "P-Rex1 binding to phospholipid vesicles containing the phosphoinositide", "setting": "P-Rex1", "result": "only weakly"}]}
{"molecule": "PtdIns(4,5)P2", "values": [{"measurement": "P-Rex1 binding to phospholipid vesicles containing the phosphoinositide", "setting": "P-Rex1", "result": "only weakly"}]}
{"molecule": "phosphatidylinositol(3,4,5)P3 [PtdIns(3,4,5)P3]", "values": [{"measurement": "activation of Rac1", "setting": "EE-Rac1", "result": "stimulated activation"}, {"measurement": "EC50", "setting": "recombinant human P-Rex1; liposomes with PtdIns(3,4,5)P3 dose response, EE-Rac1, FIG. 5A, read-out: 50% maximal effect on Rac-GEF activity of P-Rex1", "result": 300, "unit": "nM"}, {"measurement": "activation of ROS formation", "setting": "[3]", "result": "potently activate"}, {"measurement": "P-Rex1 binding to phospholipid vesicles containing the phosphoinositide", "setting": "P-Rex1", "result": "substantially augmented"}]}
